Reference: patent publication US20200339544A1 (JOINT STOCK COMPANY "BIOCAD", priority 2017, published 2020)
Read-outs that look alike come from different tables or passages of the source.

Legend:
[1] = Chemical stability in simulated intestinal fluid (SIF); assay type: physicochemical; settings: SIF without enzymes, pH 6.5; 10 μm; 2 hours at 37° C.; substance amount remaining
Experimental: (§1) 1) Determination of chemical stability in simulated intestinal fluid, simulated gastric fluid and human blood plasma.
(§2) SGF concentrate without enzymes, pH=1,4 (Sigma Ireland, cat #01651) was used as simulated gastric fluid. Initial candidate solution (10 mM in DMSO) was diluted with a SGF working solution to a concentration of 10 μm (test solution). The test solution was incubated in a dry block thermostat for 2 hours at 37° C. SIF concentrate without enzymes, pH=6.5 (Sigma Ireland, cat #55331) was used as simulated intestinal fluid. Initial candidate solution (10 mM in DMSO) was diluted with a SIF working solution to a concentration of 10 μm (test solution). The test solution was incubated in a dry block thermostat for 2 hours at 37° C. HPLC with Agilent 1200 liquid chromatography system (Agilent, USA) was employed to determine peak areas of the compounds in test samples, said peak areas corresponding to the initial test time (prior to incubation) and the final test time (after incubation in a dry block thermostat for 2 hours at 37° C.). We used gradient elution (1 mL/min flow rate). Substance amount in % in a sample after thermostatting was determined.
(§3) The stability of the compounds was estimated.

[2] = Chemical stability in simulated gastric fluid (SGF); assay type: physicochemical; settings: SGF without enzymes, pH 1,4; 10 μm; 2 hours at 37° C.; substance amount remaining
Experimental: as §1, §2, §3

[3] = Chemical stability in human blood plasma; assay type: in vitro ADME; settings: pooled human blood plasma; 10 μm; 4 hours at 37° C.; substance amount remaining
Summary of the method: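 Percent of parent remaining was derived by comparing HPLC peak areas at time zero and after 4 h at 37 °C. Test compound was at 10 μM in human plasma pooled from ten donors, and proteins were precipitated with acetonitrile before analysis.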

[4] = General cytotoxicity on HepG2 cells; assay type: cell-based; settings: human; general cytotoxicity, HepG2 cells, 72 hours, average of several tests
Summary of the method: (§4)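 HepG2 cells seeded at 2*10^4 cells per well and compounds added in DMEM with 2% FBS for 72 h at 37 °C. Viability read with Alamar Blue and CC50 derived as for IC50. Therapeutic index taken as HepG2 CC50 over H1975 IC50.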

HepG2 cells = assay: General cytotoxicity on HepG2 cells; assay type: cell-based; settings: therapeutic index, CC50 HepG2 / IC50 H1975
Summary of the method: as §4

[5] = system: A549 (lung adenocarcinoma, WT); assay: Antiproliferative activity on A549 cells (Alamar Blue); assay type: cell-based; settings: Homo sapiens, antiproliferative test
Summary of the method: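 Viability read by Alamar Blue fluorescence (λEx 540, λEm 590 nm) 3-5 h after dye addition, following 72 h compound treatment at 37° C in 2% FBS RPMI-1640, ≤1% DMSO. Seeding 5*10^3 cells/well, 16-18 h attachment. Four-parameter logistic model gave IC50.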

[6] = target: T1, DM EGFR (DoubleMutantEGFR, L828R/T790M) (Homo sapiens, UniProt P00533, L858R/T790M); assay: Inhibition of DM EGFR kinase activity (ADP-Glo); assay type: biochemical; settings: for IC50: inhibition of kinase activity, EGFR DM (L828R/T790M); for SI, IC50(WT)/IC50(DM): selectivity index, kinase EGFR WT vs EGFR DM
T1 construct: purchased SignalChem
Summary of the method: (§5)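 Luminescent ADP-Glo readout was used for both wild-type and L858R/T790M EGFR, each run 180 minutes at 37° C. Reactions used a solution of 50 μM ATP with 0.5 mg/mL peptide substrate. Four-parameter logistic curves gave IC50.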

WT EGFR (Wild-Type EGFR) = target: T2, WT EGFR (Wild-Type EGFR) (Homo sapiens, UniProt P00533); assay: Inhibition of WT EGFR kinase activity (ADP-Glo); assay type: biochemical
T2 construct: purchased SignalChem
Summary of the method: as §5

[7] = system: H1975 (lung adenocarcinoma, DM, L828R/T790M); assay: Antiproliferative activity on H1975 cells (Alamar Blue); assay type: cell-based; settings: for IC50: Homo sapiens, NCI-H1975, H1975 cells; for SI IC50(A549)/IC50(DM): selectivity index, A549 vs H1975 cells
Summary of the method: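 IC50 was fitted with a four-parameter logistic model to Alamar Blue fluorescence (540/590 nm), read 3-5 h after dye addition. Before that, compounds acted on attached H1975 cells, 15*10^3 per well in 2% FBS RPMI-1640, for 72 h at 37 °C, DMSO no more than 1%.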

[8] = Enzyme stability in human liver S9 fractions; assay type: in vitro ADME; settings: 0.5 mg/mL pooled human liver S9 fractions; 10 μM compound; 37° C.; pH 7.4; read-out: Stability in liver S9 fractions, Clint
Summary of the method: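 Compound at 10 μM was incubated at 37 °C with 0.5 mg/mL pooled human liver S9, 2 mM β-NAD and 4 mM MgCl2 in 0.1 M sodium phosphate, pH 7.4, then quenched with acetonitrile and analysed chromatographically. T½ and CLint were derived from the slope of log peak area versus time.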

[9] = system: HCC827 (lung adenocarcinoma, SM, exon19delE746-A750); assay: Antiproliferative activity on HCC827 cells (Alamar Blue); assay type: cell-based; settings: Homo sapiens, antiproliferative test
Experimental: Antiproliferative activity of EGFR inhibitors (Tables 15 and 16) was measured in cell-based bioassay on continuous epithelial cell cultures: A549 (lung adenocarcinoma, ATCC® CRM-CCL-185™—WT), HCC827 (lung adenocarcinoma, ATCC® CRL-2868™—SM (SingleMutantEGFR, exon19delE746-A750)) and H1975 (lung adenocarcinoma, ATCC® CRL-5908™—DM (DoubleMutantEGFR, L828R/T790M)) using cell viability reagent Alamar Blue (ThermoFisher, # DAL1100). Cells were cultured in 10% FBS-supplemented (Gibco, #16140071) RPMI-1640 (PanEco, S330p) for at least 1 passage after thawing, washed with PBS and passaged in 96-well culture plates (3599, Corning) with RPMI-1640 growth medium supplemented with 2% FBS in an amount of 5*10^3 cells/well for A549, 10*10^3 cells/well for HCC827 and 15*10^3 cells/well for H1975 in 100 μL, and incubated at 37° C. in an incubator (Thermo Forma, USA) under 5% of CO2 for 16-18 h for cell attachment.
The test compounds were dissolved in DMSO in the selected range of concentrations and transferred to RPMI-1640 medium (PanEco, S330p) supplemented with 2% FBS. After adding 50 μl of the prepared dilutions to the cells, the incubation mixture contained the final concentrations of the test substances and no more than 1% DMSO. The plates were Incubated at 37° C. for 72 h. After incubation, 15 μl of Alamar Blue vital dye (ThermoFisher, # DAL1100) was added to each well. The plates were shaken on an orbital shaker (Biosan, Latvia) and further incubated for 3-5 h in a CO2 incubator (Thermo Forma, USA). Number of living cells was estimated using a plate spectrophotometer Infinite M200Pro, (Tecan, Switzerland) measuring fluorescent signal at the excitation wavelength (λEx) of 540 nm and emission wavelength (λEm) of 590 nm.
IC50 was calculated using Magellan 7.2 software (Tecan, Switzerland) approximating experimental points by four-parameter logistic model with the optimization by Levenberg-Marquardt.

[10] = average values obtained in several tests, Table 16, read-out: H1975 (DM) IC50
[11] = antiproliferative test, Table 15, read-out: IC50 H1975 (DM)

| SMILES | Stability in SIF, % [1] [%] | Stability in SGF, % [2] [%] | Stability in blood plasma, % [3] [%] | CC50 at 72 h [4] [nM] | TI, CC50/IC50 (HepG2 cells) | IC50 [5] [nM] | IC50 [6] [nM] | SI, IC50(WT)/IC50(DM) [6] | IC50 (WT EGFR (Wild-Type EGFR)) [nM] | IC50 [7, 10] [nM] | IC50 [7, 11] [nM] | SI IC50(A549)/IC50(DM) [7] | Intrinsic clearance in human liver S9 fractions at 10 µM [8] [µL/min/mg] | IC50 [9] [nM] |
| --- | --- | --- | --- | --- | --- | --- | --- | --- | --- | --- | --- | --- | --- | --- |
| C=CC(=O)Nc1cc(Nc2nccc(C(=O)c3ccc(OC(C)C)cc3OC(C)C)n2)c(OC)cc1N(C)CCN(C)C [EGFR_3365_71, N-(5-((4-(2,4-diisopropoxybenzoyl)pyrimidin-2-yl)amino)-2-((2-(dimethylamino)ethyl)(methyl)amino)-4-methoxyphenyl)acrylamide] | 100.0 | 100.0 | 100.0 |  |  |  |  |  |  |  |  |  |  |  |
| C=CC(=O)Nc1cc(Nc2nccc(C(=O)c3ccc(OCC(C)C)cc3)n2)c(OC)cc1N(C)CCN(C)C [EGFR_3365_78, N-(2-((2-(dimethylamino)ethyl)(methyl)amino)-5-((4-(4-isobutoxybenzoyl)pyrimidin-2-yl)amino)-4-methoxyphenyl) acrylamide] | 91.1 | 91.1 | 81.7 |  |  |  |  |  |  |  |  |  |  |  |
| C=CC(=O)Nc1cc(Nc2nccc(C(=O)c3ccc(-n4ccnc4)cc3)n2)c(OC)cc1N(C)CCN(C)C [EGFR_3365_86, N-(5-((4-(4-(1H-imidazol-1-yl)benzoyl)pyrimidin-2-yl)amino)-2-((2-(dimethylamino)ethyl) (methyl)amino)-4-methoxyphenyl)acrylamide] | 99.4 | 99.7 | 100.0 |  |  |  |  |  |  |  |  |  |  |  |
| C=CC(=O)Nc1cc(Nc2nccc(C(=O)c3ccc(N4CCN(C)CC4)cc3OC)n2)c(OC)cc1N(C)CCN(C)C [EGFR_3365_120, N-(2-((2-(dimethylamino)ethyl)(methyl)amino)-4-methoxy-5-((4-(2-methoxy-4-(4-methylpiperazin-1-yl)benzoyl)pyrimidin-2-yl)amino)phenyl)acrylamide] |  |  | 100.0 | 29300 | 6514 | 16400 | 2.37 | 13.01 | 30.9 | 4.5 | 4.5 | 3644 | 3.8 | 5.19 |
| C=CC(=O)Nc1cc(Nc2nccc(C(=O)c3ccc(N4CCC(N(C)C)CC4)cc3)n2)c(OC)cc1N(C)CCN(C)C [EGFR_3365_121a, N-(2-((2-(dimethylamino)ethyl)(methyl)amino)-5-((4-(4-(4-(dimethylamino)piperidin-1-yl)benzoyl)pyrimidin-2-yl)amino)-4-methoxyphenyl) acrylamide] |  |  | 99.0 | 11800 | 4649 | 3270 | 0.96 | 30.92 | 29.6 | 2.55 | 2.55 | 1284 | 2.1 | 13.5 |
